From paper PMC5797802, “The A2B Adenosine Receptor Modulates the Epithelial– Mesenchymal Transition through the Balance of cAMP/PKA and MAPK/ERK Pathway Activation in Human Epithelial Lung Cells” (Frontiers in Pharmacology, 2018)

How the values were obtained:
[1] = molecular target: T1, A2B adenosine receptor (A2BAR) (Homo sapiens, UniProt P29275); assay: agonist-induced cAMP production (AlphaLISA) in A549 cells with endogenous receptor; effect reversed by MRS […]; type: cell-based
T1 construct: gene ADORA2B
T1 sequence (P29275 1-332): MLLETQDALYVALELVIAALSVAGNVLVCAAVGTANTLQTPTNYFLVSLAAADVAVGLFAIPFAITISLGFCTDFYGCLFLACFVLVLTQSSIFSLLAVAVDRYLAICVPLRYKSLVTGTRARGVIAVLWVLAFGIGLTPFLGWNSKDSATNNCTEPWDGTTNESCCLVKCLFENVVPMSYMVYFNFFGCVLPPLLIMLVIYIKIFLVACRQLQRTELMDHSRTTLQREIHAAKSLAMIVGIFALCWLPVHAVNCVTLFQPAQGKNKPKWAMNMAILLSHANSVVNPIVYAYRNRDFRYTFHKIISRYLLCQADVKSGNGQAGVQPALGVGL

[2] = molecular target: T1, A2B adenosine receptor (A2BAR); assay: reversal at […] of BAY […]-6583-induced cAMP and ERK1/[…] phosphorylation in A549 cells; type: cell-based

| SMILES | EC50 [1] [nM] | reversal at 1 μM of BAY 60-6583-induced cAMP and ERK1/2 phosphorylation in A549 [2] |
| --- | --- | --- |
| N#Cc1c(N)nc(SCC(N)=O)c(C#N)c1-c1ccc(OCC2CC2)cc1 [BAY 60-6583, 2-[6-amino-3,5-dicyano-4-[4-(cyclopropylmethoxy)phenyl]pyridin-2-ylsulfanyl] acetamide] | 17.2 ± 2.5 | – |
| CCCn1c(=O)c2[nH]c(-c3ccc(OCC(=O)Nc4ccc(C(C)=O)cc4)cc3)nc2n(CCC)c1=O [MRS1706, N-(4-acetylphenyl)-2-[4-(2,3,6,7-tetrahydro-2,6-dioxo-1,3-dipropyl-1H-purin-8-yl)phenoxy]-acetamide] | – | The effects evoked by A2BAR stimulation were almost completely reversed by the A2BAR inverse agonist MRS1706 |
